BindingDB's records for patent US20250313563 (The Broad Institute, 2025)
Values joined by “and” are separate entries in the source; they are usually repeats but may differ in a detail not shown here. Equal values may be shown once.

The molecules below were run against Glycogen synthase kinase-3 alpha (Homo sapiens, UniProt P49840) (assay: TR-FRET Assay).
Method: (§1) The assay was performed in a white, 384 well, low volume, flat bottom plate (Grenier). […] The kinase activity was quenched with 2 μL of 250 mM EDTA. A 10 μL volume of 40 nM Strepavidin-d2, 2 nM Tb2+-pSer641 antibody in TR-FRET Detection Buffer (Invitrogen) was then added.

Chain of Glycogen synthase kinase-3 alpha (P49840 whole entry): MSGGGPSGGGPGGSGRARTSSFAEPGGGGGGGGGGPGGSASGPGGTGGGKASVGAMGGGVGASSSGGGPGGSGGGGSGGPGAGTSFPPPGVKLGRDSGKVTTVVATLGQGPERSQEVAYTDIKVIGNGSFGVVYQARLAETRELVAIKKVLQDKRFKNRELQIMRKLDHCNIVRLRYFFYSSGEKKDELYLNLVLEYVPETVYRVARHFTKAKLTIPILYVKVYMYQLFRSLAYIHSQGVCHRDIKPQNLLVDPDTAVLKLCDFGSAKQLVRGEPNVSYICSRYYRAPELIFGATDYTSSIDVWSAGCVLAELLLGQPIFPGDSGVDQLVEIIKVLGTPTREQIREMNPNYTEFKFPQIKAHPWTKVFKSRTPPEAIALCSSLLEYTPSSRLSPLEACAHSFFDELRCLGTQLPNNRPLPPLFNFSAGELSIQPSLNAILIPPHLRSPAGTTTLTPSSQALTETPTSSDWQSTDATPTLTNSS

Row | SMILES | IC50
1 | CC[C@@]1(c2cccc(N3CCc4ccncc43)c2)C2=CN=NC2NC2=C1C(=O)CC(C)(C)C2 (some centres undefined) [US20250313563, Compound 912004] | 1000 to 5000 nM
2 | CC[C@@]1(c2cccc(C(F)(F)F)c2)C2=CN=NC2NC2=C1C(=O)N(c1cncnc1)CC2 (some centres undefined) [US20250313563, Compound 948380] | 100 to 1000 nM
3 | CC[C@@]1(c2cccc(-c3ccnc(C)c3)c2)C2=C(CC(C)(C)NC2=O)NC2N=NC(C(F)F)=C21 (some centres undefined) [US20250313563, Compound 950163] | < 100 nM and 100 to 1000 nM
4 | CC[C@@]1(c2cccc(C3CCC3)c2)C2=CN=NC2NC2=C1C(=O)CC(C)(C)C2 (some centres undefined) [US20250313563, Compound 949514] | 1000 to 5000 nM
5 | CC[C@]1(c2cccc(-c3ccncc3)c2)C2=CN=NC2NC2=C1C(=O)CC(C)(C)[C@H]2F (some centres undefined) [US20250313563, Compound 959342] | 1000 to 5000 nM
6 | CC[C@@]1(c2cccc(N(C)c3cccnn3)c2)C2=CN=NC2NC2=C1C(=O)CC(C)(C)C2 (some centres undefined) [US20250313563, Compound 911976] | 100 to 1000 nM
7 | CC[C@@]1(c2cccc(C(F)(F)C(F)(F)F)c2)C2=CN=NC2NC2=C1C(=O)CC(C)(C)C2 (some centres undefined) [US20250313563, Compound 949268] | 1000 to 5000 nM
8 | CC[C@]1(c2cccc(-c3ccncc3C)c2)C2=CN=NC2NC2=C1C(=O)NC1(CCOCC1)C2 (some centres undefined) [US20250313563, Compound 948367] | 100 to 1000 nM
9 | CC[C@@]1(c2cccc(C(F)(F)F)c2)C2=CN=NC2NC2=C1C(=O)N[C@H](c1ccccc1)C2 (some centres undefined) [US20250313563, Compound 945363] | 1000 to 5000 nM
10 | CC[C@@]1(c2cccc(N(C)c3ncccn3)c2)C2=CN=NC2NC2=C1C(=O)CC(C)(C)C2 (some centres undefined) [US20250313563, Compound 911981] | < 100 nM
11 | CC[C@@]1(c2cccc(-c3cn(C)nc3C)c2)C2=C(CC(C)(C)CC2=O)NC2N=NC(C)=C21 (some centres undefined) [US20250313563, Compound 913034] | 1000 to 5000 nM
12 | CC[C@]1(c2cccc(-c3ccnc(C)c3)c2)C2=CN=NC2NC2=C1C(=O)C[C@]1(CCOC1)C2 (some centres undefined) [US20250313563, Compound 947412] | 1000 to 5000 nM
13 | CC[C@@]1(c2cccc(-c3c(C)nn(C)c3C)c2)C2=CN=NC2NC2=C1C(=O)CC(C)(C)C2 (some centres undefined) [US20250313563, Compound 911991] | 100 to 1000 nM
14 | CC[C@@]1(c2cccc(C(F)(F)F)c2)C2=CN=NC2NC2=C1C(=O)NC[C@@H]2C (some centres undefined) [US20250313563, Compound 945384] | 1000 to 5000 nM
15 | CC[C@@]1(c2cccc(-c3ccncc3F)c2)C2=C(CC(C)(C)NC2=O)NC2N=NC(F)=C21 (some centres undefined) [US20250313563, Compound 949651] | 100 to 1000 nM
16 | CC(C)(C)CC1N=NC2=C1[C@](C)(c1cccc(S(C)(=O)=O)c1)C1=C(CC(C)(C)CC1=O)N2 (some centres undefined) [US20250313563, Compound 114687] | 100 to 1000 nM
17 | CC[C@]1(c2cccc(-c3ccnn3C)c2)C2=CN=NC2NC2=C1C(=O)NC1(CCC1)C2 (some centres undefined) [US20250313563, Compound 948522] | 100 to 1000 nM
18 | CC[C@@]1(c2cccc(-c3ccncc3)c2)C2=CN=NC2NC2=C1C(=O)C[C@@H](C)C2 (some centres undefined) [US20250313563, Compound 874315] | 1000 to 5000 nM
19 | CC[C@]1(c2cccc([C@H]3CCOC(C)(C)C3)c2)C2=CN=NC2NC2=C1C(=O)CC(C)(C)C2 (some centres undefined) [US20250313563, Compound 912088] | 100 to 1000 nM

Row | SMILES | IC50
20 | COC(=O)C1CCC2(CC1)C1=C(N=NC1)NC1=C2C(=O)CC(C)(C)C1 (centres undefined) [US20250313563, Compound 918277] | < 100 nM
21 | CC[C@@]1(c2cccc(Nc3ncccn3)c2)C2=CN=NC2NC2=C1C(=O)CC(C)(C)C2 (some centres undefined) [US20250313563, Compound 945958] | 1000 to 5000 nM
22 | CC[C@]1(c2cccc(-c3ccnn3CCC(C)C)c2)C2=CN=NC2NC2=C1C(=O)CC(C)(C)C2 (some centres undefined) [US20250313563, Compound 946096] | 100 to 1000 nM
23 | CC[C@@]1(c2cccc(-c3ccnc4cccnc34)c2)C2=CN=NC2NC2=C1C(=O)NC(C)(C)C2 (some centres undefined) [US20250313563, Compound 952560] | < 100 nM and 100 to 1000 nM
24 | CC[C@]1(c2cccc(-c3ccnn3C)c2)C2=CN=NC2NC2=C1C(=O)N[C@@](C)(COC)C2 (some centres undefined) [US20250313563, Compound 947907] | 1000 to 5000 nM
25 | CC[C@@]1(c2cccc(-c3ccnc(C)c3C)c2)C2=CN=NC2NC2=C1C(=O)CC(C)(C)C2 (some centres undefined) [US20250313563, Compound 943517] | 100 to 1000 nM
26 | CC[C@]1(c2cccc(-c3ccncc3C)c2)C2=CN=NC2NC2=C1C(=O)NC(C)(COC)C2 (some centres undefined) [US20250313563, Compound 948127] | 100 to 1000 nM
27 | CC(C)(C)CC1=C2C(N=N1)NC1=C(C(=O)CC(C)(C)C1)C21COC1 (centres undefined) [US20250313563, Compound 90709] | 1790 nM and 13700 nM
28 | CC[C@]1(c2cccc(S(=O)(=O)C3COC3)c2)C2=CN=NC2NC2=C1C(=O)CC(C)(C)C2 (some centres undefined) [US20250313563, Compound 946003] | 100 to 1000 nM
29 | CC[C@]1(c2cccc(-c3ccn(C)n3)c2)C2=C(CC(C)(C)CC2=O)NC2N=NC(C)=C21 (some centres undefined) [US20250313563, Compound 913039] | 1000 to 5000 nM
30 | CC[C@]1(c2cccc(-c3ccnc(C)c3)c2)C2=CN=NC2NC2=C1C(=O)NC1(CCOCC1)C2 (some centres undefined) [US20250313563, Compound 948524] | 1000 to 5000 nM
31 | CCc1cccc([C@]2(CC)C3=CN=NC3NC3=C2C(=O)CC(C)(C)C3)c1 (some centres undefined) [US20250313563, Compound 949391] | 1000 to 5000 nM
32 | CC[C@]1(c2cccc(-c3ccnc(C(F)(F)F)c3)c2)C2=C(CC(C)(C)CC2=O)NC2N=NC(C)=C21 (some centres undefined) [US20250313563, Compound 913049] | 100 to 1000 nM
33 | CC[C@]1(c2cccc(-c3cnn(C)c3F)c2)C2=CN=NC2NC2=C1C(=O)NC(C)(C)C2 (some centres undefined) [US20250313563, Compound 949395] | 1000 to 5000 nM
34 | CC[C@@]1(c2cccc(Oc3cncnc3)c2)C2=CN=NC2NC2=C1C(=O)CC(C)(C)C2 (some centres undefined) [US20250313563, Compound 945939] | 100 to 1000 nM
35 | CC[C@@]1(c2cccc(-c3c(C)cnn3C)c2)C2=CN=NC2NC2=C1C(=O)NC(C)(C)C2 (some centres undefined) [US20250313563, Compound 952021] | < 100 nM and 100 to 1000 nM
36 | CC[C@@]1(c2cccc(N3C[C@@H](C)[C@@H](C)C3)c2)C2=CN=NC2NC2=C1C(=O)CC(C)(C)C2 (some centres undefined) [US20250313563, Compound 918327] | 1000 to 5000 nM
37 | CC[C@]1(c2cccc(-c3cc(C)ncc3F)c2)C2=CN=NC2NC2=C1C(=O)CC(C)(C)C2 (some centres undefined) [US20250313563, Compound 927339] | 1000 to 5000 nM
38 | Cn1ccc(S(=O)(=O)N2CCC3(CC2)C2=C(N=NC2)NC2=C3C(=O)NC(C)(C)C2)n1 [US20250313563, Compound 943961] | < 100 nM and 100 to 1000 nM

These molecules were tested against Glycogen synthase kinase-3 beta (Homo sapiens, UniProt P49841) (assay: TR-FRET Assay).
Method: as §1

Chain of Glycogen synthase kinase-3 beta (P49841 whole entry): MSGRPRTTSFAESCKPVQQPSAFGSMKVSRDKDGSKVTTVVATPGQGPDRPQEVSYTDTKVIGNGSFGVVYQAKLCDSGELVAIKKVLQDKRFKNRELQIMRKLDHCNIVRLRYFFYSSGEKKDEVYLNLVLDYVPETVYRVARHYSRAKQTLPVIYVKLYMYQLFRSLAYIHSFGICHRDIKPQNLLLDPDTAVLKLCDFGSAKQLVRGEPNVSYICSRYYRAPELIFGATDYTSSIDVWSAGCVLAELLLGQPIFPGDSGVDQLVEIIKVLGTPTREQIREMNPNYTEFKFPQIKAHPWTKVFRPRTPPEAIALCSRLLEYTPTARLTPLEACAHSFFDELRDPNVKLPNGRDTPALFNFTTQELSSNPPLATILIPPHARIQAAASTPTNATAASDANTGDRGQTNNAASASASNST

Row | SMILES | IC50
39 | CC[C@@]1(c2cccc(S(=O)(=O)C(C)C)c2)C2=CN=NC2NC2=C1C(=O)CC(C)(C)C2 (some centres undefined) [US20250313563, Compound 913135] | 100 to 1000 nM
40 | CC[C@@]1(c2cccc(-c3cn(C)nc3C)c2)C2=CN=NC2NC2=C1C(=O)N(C)C(C)(C)C2 (some centres undefined) [US20250313563, Compound 949005] | 1000 to 5000 nM
41 | CC[C@@]1(c2cccc(C)c2)C2=C(CC(C)(C)CC2=O)NC2N=NC(C(F)(F)F)=C21 (some centres undefined) [US20250313563, Compound 883873] | 100 to 1000 nM
42 | CC[C@@]1(c2cccc(OC)c2)C2=CN=NC2NC2=C1C(=O)C[C@H](C)C2 (some centres undefined) [US20250313563, Compound 811559] | 100 to 1000 nM
43 | CC[C@@]1(c2cccc(-c3ccnc4c3CCCC4)c2)C2=CN=NC2NC2=C1C(=O)CC(C)(C)C2 (some centres undefined) [US20250313563, Compound 944033] | 100 to 1000 nM
44 | CC[C@]1(c2cccc(-c3ccncc3C)c2)C2=CN=NC2NC2=C1C(=O)CC(C)(C)C2 (some centres undefined) [US20250313563, Compound 943990] | 100 to 1000 nM
45 | CC[C@]1(c2cccc(-c3cnn(C)c3C)c2)C2=C(CC(C)(C)CC2=O)NC2N=NC(C)=C21 (some centres undefined) [US20250313563, Compound 913045] | < 100 nM and 100 to 1000 nM
46 | CC(C)(C)CC1N=NC2=C1[C@@](C)(c1cccc(N3C=COCC3)c1)C1=C(CC(C)(C)CC1=O)N2 (some centres undefined) [US20250313563, Compound 126399] | > 5000 nM
47 | CN1C[C@@]2(C3=C(CC(C)(C)CC3=O)NC3N=NC(CC(C)(C)C)=C32)c2ccccc21 (some centres undefined) [US20250313563, Compound 125979] | 1000 to 5000 nM
48 | CCC1(c2cccc(N3CCC[C@H]3C)c2)C2=CN=NC2NC2=C1C(=O)CC(C)(C)C2 (some centres undefined) [US20250313563, Compound 885204] | 100 to 1000 nM
49 | Cn1ccc(S(=O)(=O)N2CC[C@@]3(C2)C2=C(N=NC2)NC2=C3C(=O)CC(C)(C)C2)n1 [US20250313563, Compound 945712] | 100 to 1000 nM
50 | CC[C@]1(c2cccc(-c3ccnn3C)c2)C2=CN=NC2NC2=C1C(=O)CC(C)(C)C2 (some centres undefined) [US20250313563, Compound 911992] | 100 to 1000 nM
51 | CC[C@]1(c2cccc(S(=O)(=O)CC3CC3)c2)C2=CN=NC2NC2=C1C(=O)CC(C)(C)C2 (some centres undefined) [US20250313563, Compound 917150] | 100 to 1000 nM
52 | CC[C@@]1(c2cccc(-c3cnn(CC#N)c3)c2)C2=CN=NC2NC2=C1C(=O)NC(C)(C)C2 (some centres undefined) [US20250313563, Compound 952210] | 100 to 1000 nM
53 | CC[C@]1(c2cccc(-c3ccncc3C)c2)C2=CN=NC2NC2=C1C(=O)NC(C)(C)C2 (some centres undefined) [US20250313563, Compound 947576] | 1000 to 5000 nM
54 | CC[C@@]1(c2cccc(-c3c(Cl)cncc3Cl)c2)C2=CN=NC2NC2=C1C(=O)NC(C)(C)C2 (some centres undefined) [US20250313563, Compound 948515] | 100 to 1000 nM
55 | CC[C@]1(c2cccc(-c3cnn(C)c3)c2)C2=CN=NC2NC2=C1C(=O)C[C@H](C)C2 (some centres undefined) [US20250313563, Compound 823720] | 100 to 1000 nM
56 | CC1(C)CC(=O)C2=C(C1)NC1=C(CN=N1)[C@@]21COC2(CN(C(=O)C3CCC4(CC3)COC4)C2)C1 [US20250313563, Compound 944075] | 100 to 1000 nM
57 | CC[C@]1(c2cccc(-c3cnn4c3CCCC4)c2)C2=C(CC(C)(C)CC2=O)NC2N=NC(C)=C21 (some centres undefined) [US20250313563, Compound 913036] | 100 to 1000 nM
58 | CC[C@]1(c2cccc(C(F)(F)F)c2)C2=C(N=NC2)NC2=C1C(=O)N(C)[C@@H]2C [US20250313563, Compound 913454] | 100 to 1000 nM
59 | CC[C@]1(c2cccc(C(F)(F)F)c2)C2=CN=NC2NC2=C1C(=O)N(c1cnn(C)c1)CC2 (some centres undefined) [US20250313563, Compound 949270] | 100 to 1000 nM
